Data reported in patent US10689344B2, “Biphenylamide derivative Hsp90 inhibitors” (University of Kansas, priority 2013, dated 2020).

Test system: SKME128 (Melanoma)
Assay: Activity of compounds in cancer cell lines, SKME128
Format: cell-based
Conditions: Table 12, SKME128 (Melanoma)
Procedure: Cells were maintained in a 1:1 mixture of Advanced DMEM/F12 (Gibco) supplemented with non-essential amino acids, L-glutamine (2 mM), streptomycin (500 μg/mL), penicillin (100 units/mL), and 10% FBS. Cells were grown to confluence in a humidified atmosphere (37° C., 5% CO2), seeded (2000/well, 100 μL) in 96-well plates, and allowed to attach overnight. Compound at varying concentrations in DMSO (1% DMSO final concentration) was added, and cells were returned to the incubator for 72 h. At 72 h, the number of viable cells was determined using an MTS/PMS cell proliferation kit (Promega) per the manufacturer's instructions. Cells incubated in 1% DMSO were used at 100% proliferation, and values were adjusted accordingly. IC50 values were calculated from separate experiments performed in triplicate using GraphPad Prism.

- IC50: 480 nM
SMILES: CN1CCC(Oc2ccc(-c3ccc(NC(=O)c4ccc(C(C)(C)C)cc4)cc3)cc2)CC1 [drawing 163]
